Data reported in US20070167499A1, “Biaryl linked hydroxamates: preparation and pharmaceutical applications” (A*BIO Pte Ltd., priority 2003, published 2007).

How the values were obtained:
[1] = test system: Ramos Burkitt-lymphoma cells; assay: Apoptosis assay (Annexin V / PI flow cytometry); type: cell-based, human; conditions: 48 h after treatment with 10 μM
Description: In various therapies such as for proliferative disorders like cancer, the selective induction of apoptosis in proliferating cells such as tumor cells is one of the desirable approaches, and can be mediated by treatment with various anti-proliferative compounds [Blagosklonny MV, Oncogene, 23(16): 2967 (2004); Kaufmann and Eamshaw, Exp Cell Res. 256(1): 42-9 (2000)]. Programmed cell death or apoptosis is the cellular response to stress factors such as DNA damage introduced during conventional anti-cancer treatment. The concerted sequence of events during apoptosis, clearly differentiate this pathway from a non-coordinated form of cell death called necrosis. During the course of apoptosis, characteristic phenotypical cellular changes occur, which include the condensation of chromatin, the shrinkage of cells and finally the fragmentation of chromosomal DNA. One of the very early change caused by apoptotic events occurs in the phospholipids bilayer of the plasma membrane. The phospholipid phosphatidylserine is translocated from the inner to the outer side of the plasma-membrane and, as a result, is exposed to the extracellular space. One way of detecting early apoptotic cells is to determine the amount of phosphatidyl-serine at the extracellular side of the plasma-membrane which is accomplished by the standard flow cytometric method of Annexin V staining. The phospholipids recognizing protein Annexin V binds with high affinity to these inverted and exposed phosphatidyl-serines.
The ability of the compounds in this invention to induce apoptosis was tested in Ramos Burkitt-lymphoma cells. This cell line is one of the gold standard cell lines commonly used as a tissue culture model for B cell lymphoma. Representative compounds as indicated below were added to 80,000 cells per 500 μl growth medium (RPMI1640 medium supplemented with 2 mM L-Glutamine, 10% heat-inactivated FBS, 1 mM Na-Pyruvate and 10 mM HEPES) in 24 well format at various concentrations. Two days after the start of treatment, cells were collected and subjected to the Annexin V staining protocol following the instructions of the manufacturer (BD Biosciences). By using propidium iodide (PI) as a viability control, cells that stain positive for Annexin V, but negative for PI, are undergoing apoptosis.

HDAC1 enzyme (GST-HDAC1) = target: T1, HDAC1 enzyme (GST-HDAC1) (Homo sapiens, UniProt Q13547); assay: In vitro HDAC assay for determination of IC50 values (BIOMOL fluorescent-based HDAC activity assay), HDAC1; type: biochemical; conditions: 600 nM HDAC1 enzyme, 500 μM Flur de lys generic substrate, room temperature 2 h
T1 construct: Amplification of human HDAC1 and HDAC8 coding region from this cDNA library; made in house; host or cells: SF9 insect cells (baculovirus, pDEST20 vector)
Protocol: (§1) Recombinant GST-HDAC1 and GST-HDAC-8 Protein expression and purification
(§2) Human cDNA library was prepared using cultured SW620 cells. Amplification of human HDAC1 and HDAC8 coding region from this cDNA library was cloned separately into the baculovirus expression pDEST20 vector and pFASTBAC vector respectively (GATEWAY Cloning Technology, Invitrogen Pte Ltd). The pDEST20-HDAC1 and pFASTBAC-HTGST-HDAC8 constructs were confirmed by DNA sequencing. Recombinant baculovirus was prepared using the Bac-To-Bac method following the manufacturer's instruction (Invitrogen Pte Ltd). Baculovirus titer was determined by plaque assay to be about 10^8 PFU/ml.
(§3) Expression of GST-HDAC1 or HTGST-HDAC8 was done by infecting SF9 cells (Invitrogen Pte Ltd) with pDEST20-HDAC1 or pFASTBAC-GST-HDAC8 baculovirus at MOI=1 for 48 h. Soluble cell lysate was incubated with pre-equilibrated Glutathione Sepharose 4B beads (Amersham) at 4° C. for 2 h. The beads were washed with PBS buffer for 3 times. The GST-HDAC1 protein or GST-HDAC8 protein was eluted by elution buffer containing 50 mM Tris, pH8.0, 150 mM NaCl, 1% Triton X-100 and 10 mM or 20 mM reduced Glutathione. The purified GST-HDAC1 protein or purified GST-HDAC8 protein was dialyzed with HDAC storage buffer containing 10 mM Tris, pH7.5, 100 mM NaCl and 3 mM MgCl2. 20% Glycerol was added to purified GST-HDAC1 protein or purified GST-HDAC8 before storage at −80° C.
(§4) In vitro HDAC assay for determination of IC50 values
The assay has been carried out in 96 well format and the BIOMOL fluorescent-based HDAC activity assay has been applied. The reaction composed of assay buffer, containing 25 mM Tris pH 7.5, 137 mM NaCl, 2.7 mM KCl, 1 mM MgCl2, 1 mg/ml BSA, tested compounds, 500 nM HDAC8 enzyme or 600 nM HDAC1 enzyme, 200 μM Flur de lys p53 peptide substrate for HDAC8 enzyme or 500 μM Flur de lys generic substrate for HDAC1 enzyme and subsequently was incubated at room temperature for 2 h. Flur de lys Developer was added and the reaction was incubated for 10 min. Briefly, deacetylation of the substrate sensitizes it to the developer, which then generates a fluorophore The fluorophore is excited with 360 nm light and the emitted light (460 nm) is detected on a fluorometric plate reader (Tecan Ultra Microplate detection system, Tecan Group Ltd.).
(§5) The analytical software, Prism 3.0® (GraphPad Software Inc) has been used to generate IC50 from a series of data.

HDAC8 enzyme (GST-HDAC8) = target: T2, HDAC8 enzyme (GST-HDAC8) (Homo sapiens, UniProt Q9BY41); assay: In vitro HDAC assay for determination of IC50 values (BIOMOL fluorescent-based HDAC activity assay), HDAC8; type: biochemical; conditions: 500 nM HDAC8 enzyme, 200 μM Flur de lys p53 peptide substrate, room temperature 2 h; read-out: HDAC8 Enzyme Activity, IC50
T2 construct: Amplification of human HDAC1 and HDAC8 coding region from this cDNA library; made in house; host or cells: SF9 insect cells (baculovirus, pFASTBAC vector)
T2 sequence (Q9BY41 1-377): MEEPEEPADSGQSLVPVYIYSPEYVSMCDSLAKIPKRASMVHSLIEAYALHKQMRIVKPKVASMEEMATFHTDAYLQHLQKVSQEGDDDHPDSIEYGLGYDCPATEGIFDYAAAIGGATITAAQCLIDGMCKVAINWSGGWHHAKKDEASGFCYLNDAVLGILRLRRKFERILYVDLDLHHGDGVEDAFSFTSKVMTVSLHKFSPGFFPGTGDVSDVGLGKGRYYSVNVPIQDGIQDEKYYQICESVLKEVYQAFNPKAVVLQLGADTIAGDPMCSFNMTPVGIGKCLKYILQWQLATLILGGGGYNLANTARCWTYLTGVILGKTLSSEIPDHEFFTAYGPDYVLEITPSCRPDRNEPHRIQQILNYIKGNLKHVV
Protocol: as §1
as §2, with “The pDEST20-HDAC1 and pFASTBAC-HTGST-HDAC8 constructs were confirmed by DNA sequencing.” left out, “Ltd).” for “Ltd). Baculovirus titer was determined by plaque assay to be about 10^8 PFU/ml.”
as §3, §4
The assay has been carried out in 96 well format and the BIOMOL fluorescent-based HDAC activity assay has been applied. […] Flur de lys Developer was added and the reaction was incubated for 10 min. Briefly, deacetylation of the substrate sensitizes it to the developer, which then generates a fluorophore The fluorophore is excited with 360 nm light and the emitted light (460 nm) is detected on a fluorometric plate reader (Tecan Ultra Microplate detection system, Tecan Group Ltd.).
as §5

[2] = test system: acetylated H3 in Colo205 cells; assay: Histone H3 acetylation assay (western-blot); type: cell-based, human; design: key: “Active” means accumulation of acetylated histone was observed when compared with control (without compound); conditions: Colo205 cells, 0.1, 1, 5 and 10 μM, after 24 h
Protocol: (§6) Histone H3, H4 and H2A acetylation assay
A hallmark of histone deacetylase (HDAC) inhibition is the increase in the acetylation level of histones. Histone acetylation, including H3, H4 and H2A can be detected by immuno-blotting (western-blot). Colo205 cells, approximately 1.5×10^6 cells/10 cm dish, were seeded in the previously described medium, cultivated for 24 h and subsequently treated with HDAC inhibitory agents at 0.1, 1, 5 and 10 μM final concentration. […] The protein concentration was quantified using BCA method (Sigma Pte Ltd). The protein lysate was separated using 4-12% bis-tris SDS-PAGE gel (Invitrogen Pte Ltd) and was transferred onto PVDF membrane (BioRad Pte Ltd). The membrane was probed separately using primary antibody specific for acetylated H3, acetylated H4 or acetylated H2A (Upstate Pte Ltd). The detection antibody, goat anti rabbit antibody conjugated with horse radish peroxidase (HRP) was used according to the manufacturing instruction (Pierce Pte Ltd). After removing the detection antibody from the membrane, an enhanced chemiluminescent substrate for detection of HRP (Pierce Pte Ltd) was added onto the membrane. After removing the substrate, the membrane was exposed to an X-ray film (Kodak) for 1 sec-20 mins. The X-ray film was developed using the X-ray film processor. The density of each band observed on the developed film could be analysed using UVP Bioimaging software (UVP, Inc, Upland, Calif.). The values were then normalized against the density of actin in the corresponding samples to obtain the expression of the protein.

[3] = test system: acetylated H4 in Colo205 cells; assay: Histone H4 acetylation assay (western-blot); type: cell-based, human; design: key: “Active” means accumulation of acetylated histone was observed when compared with control (without compound); conditions: Colo205 cells, 0.1, 1, 5 and 10 μM, after 24 h
Protocol: as §6
A hallmark of histone deacetylase (HDAC) inhibition is the increase in the acetylation level of histones. Histone acetylation, including H3, H4 and H2A can be detected by immuno-blotting (western-blot). Colo205 cells, approximately 1.5×10^6 cells/10 cm dish, were seeded in the previously described medium, cultivated for 24 h and subsequently treated with HDAC inhibitory agents at 0.1, 1, 5 and 10 μM final concentration. After 24 h, cells were harvested and lysed according to the instruction from Sigma Mammalian Cell Lysis Kit. The protein concentration was quantified using BCA method (Sigma Pte Ltd). The protein lysate was separated using 4-12% bis-tris SDS-PAGE gel (Invitrogen Pte Ltd) and was transferred onto PVDF membrane (BioRad Pte Ltd). The membrane was probed separately using primary antibody specific for acetylated H3, acetylated H4 or acetylated H2A (Upstate Pte Ltd). The detection antibody, goat anti rabbit antibody conjugated with horse radish peroxidase (HRP) was used according to the manufacturing instruction (Pierce Pte Ltd). After removing the detection antibody from the membrane, an enhanced chemiluminescent substrate for detection of HRP (Pierce Pte Ltd) was added onto the membrane. After removing the substrate, the membrane was exposed to an X-ray film (Kodak) for 1 sec-20 mins. The X-ray film was developed using the X-ray film processor. The density of each band observed on the developed film could be analysed using UVP Bioimaging software (UVP, Inc, Upland, Calif.). The values were then normalized against the density of actin in the corresponding samples to obtain the expression of the protein.

T1 sequence (Q13547 whole entry): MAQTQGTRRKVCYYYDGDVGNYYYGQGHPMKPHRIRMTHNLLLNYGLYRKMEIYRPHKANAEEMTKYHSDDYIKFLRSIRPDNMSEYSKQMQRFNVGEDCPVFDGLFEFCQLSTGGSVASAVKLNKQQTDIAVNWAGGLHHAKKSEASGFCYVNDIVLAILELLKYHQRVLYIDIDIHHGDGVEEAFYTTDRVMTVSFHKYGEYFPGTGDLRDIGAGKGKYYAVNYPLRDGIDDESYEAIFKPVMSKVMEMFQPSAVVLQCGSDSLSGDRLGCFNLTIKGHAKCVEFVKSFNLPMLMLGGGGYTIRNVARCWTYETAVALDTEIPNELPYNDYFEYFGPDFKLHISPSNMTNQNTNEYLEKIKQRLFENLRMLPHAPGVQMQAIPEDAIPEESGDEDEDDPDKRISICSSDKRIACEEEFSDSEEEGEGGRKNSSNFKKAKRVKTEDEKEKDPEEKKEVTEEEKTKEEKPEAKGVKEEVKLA

SMILES | % cells in late apoptosis (Ramos) [1] [%] | IC50 (HDAC1 enzyme (GST-HDAC1)) [µM] | IC50 (HDAC8 enzyme (GST-HDAC8)) [µM] | Histone 3 acetylation [2] | Histone 4 acetylation [3]
O=C(Cc1ccccc1)NCc1cccc(-c2ccc(C(=O)NO)cc2)c1 [3′-(Phenylacetylamino-methyl)-biphenyl-4-carboxylic acid hydroxyamide, reference compound] | 89 |  |  |  | 
Cc1nc(C2CCCNC2)sc1C(=O)Nc1nc(-c2ccc(CC(=O)NO)s2)cs1 (stereo not drawn) [Example 6] |  | 2.78 | 0.04 |  | 
O=C(Cc1ccc(-c2csc(NC(=O)c3ccc(N4CCNCC4)cc3)n2)s1)NO [Example 8] | 74 | 2.76 | 0.089 |  | 
O=C(Cc1ccc(-c2csc(NC(=O)c3ccn(CC4CCNCC4)c3-c3ccccc3)n2)s1)NO [Example 10] |  | > 100 | 0.14 |  | 
O=C(NO)c1ccc(-c2csc(NS(=O)(=O)c3ccccc3)n2)s1 [Example 15, 5-(2-Benzenesulfonylamino-thiazol-4-yl)-thiophene-2-carboxylic acid hydroxyamide] |  | 1.13 | 0.29 |  | 
O=C(COc1ccccc1)Nc1nc(-c2ccc(C(=O)NO)s2)cs1 [Example 16, 5-[2-(2-Phenoxy-acetamino)-thiazol-4-yl]-thiophene-2-carboxylic acid hydroxyamide] | 90 | 0.7 | 0.038 |  | 
O=C(Cc1ccccc1)Nc1nc(-c2cc(C(=O)NO)no2)cs1 [Example 17, 5-(2-Phenylacetylamino-thiazol-4-yl)-isoxazole-3-carboxylic acid hydroxyamide] |  | 1.4 | 0.34 |  | 
O=C(Nc1cccc(-c2cc(C(=O)NO)n[nH]2)c1)c1ccccc1 [Example 18, 5-(3-Benzoylamino-ihenyl)-1H-pyrazole-3-carboxylic acid hydroxyamide] |  | > 100 | 0.35 |  | 
O=C(NO)c1ccc(-c2ccc(CNCCc3c[nH]c4ccccc34)cc2)s1 [Example 28] |  | 0.015 | 0.014 |  | 
O=C(NO)c1ccc(-c2cccc(CNCCc3ccccc3)c2)s1 [Example 29] |  | 0.087 | 0.026 |  | 
O=C(NO)c1ccc(-c2cccc(CNCCc3ccccn3)c2)s1 [Example 30] |  | 0.22 | 0.05 | Active | Active
O=C(NO)c1ccc(-c2cccc(CNCCc3c[nH]c4ccccc34)c2)s1 [Example 31] |  | 0.017 | 0.008 |  | 
O=C(NO)c1ccc(-c2ccc(NCc3ccccc3)cc2)s1 [Example 44] | 82 | 1.42 | 0.11 |  | 
